Results taken from US20250277012A1 (Protagonist Therapeutics, Inc., priority 2021, published 2025).
Where two headings read alike, the source gives them in different places. Starred links: 1 amine or outer side, 2 acyl side, 3 side chain; linkers in the order of their positions; H or OH if unused. Positions of bridges follow the written chain, without caps; N, C: chain ends. Non-standard residues stand in square brackets, D forms with d. Residues, ends and D or L forms follow the SMILES beside them. Groups on a side chain read outwards from the residue. *: point of attachment. CH3O(CH2CH2O)11CH2CH2CO = COCCOCCOCCOCCOCCOCCOCCOCCOCCOCCOCCOCCC(=O)*; X1 = C[N+](C)(CCNC(=O)CCCCCCCCCCCCCCCCC(=O)O)CC(=O)*; X5 = CCCCCCCCCCCCCCCC(=O)NCC[N+](C)(C)CC(=O)*; C18 diacid = O=C(O)CCCCCCCCCCCCCCCCC(=O)*; Dip = N[C@H](C(=O)O)C(c1ccccc1)c1ccccc1; γGlu = O=C(O)[C@H](CCC(=O)[*:2])N[*:1]; Palmitoyl = CCCCCCCCCCCCCCCC(=O)*; dNMeF = CN[C@H](Cc1ccccc1)C(=O)O; 3Pal = N[C@@H](Cc1cccnc1)C(=O)O; dNMeQ = CN[C@H](CCC(N)=O)C(=O)O; β3hF = N[C@H](CC(=O)O)Cc1ccccc1; Aad = N[C@@H](CCCC(=O)O)C(=O)O; dNMeL = CN[C@H](CC(C)C)C(=O)O; NMeK = CN[C@@H](CCCCN)C(=O)O; Isovaleryl = CC(C)CC(=O)*; dNMeS = CN[C@H](CO)C(=O)O; Dap = NC[C@H](N)C(=O)O; AEEA = NCCOCCOCC(=O)O; Ahx = NCCCCCC(=O)O

Experiments:
[1] = target: T1, ferroportin (Homo sapiens, UniProt Q9NP59); assay: FPN activity assay: ferroportin-GFP internalization/degradation in HEK293 cells; assay type: cell-based; set-up: expressed in transfected cells; conditions: Table 6E, ferroportin-GFP internalization/degradation, read-out: FPN IC50
T1 sequence (Q9NP59 1-571): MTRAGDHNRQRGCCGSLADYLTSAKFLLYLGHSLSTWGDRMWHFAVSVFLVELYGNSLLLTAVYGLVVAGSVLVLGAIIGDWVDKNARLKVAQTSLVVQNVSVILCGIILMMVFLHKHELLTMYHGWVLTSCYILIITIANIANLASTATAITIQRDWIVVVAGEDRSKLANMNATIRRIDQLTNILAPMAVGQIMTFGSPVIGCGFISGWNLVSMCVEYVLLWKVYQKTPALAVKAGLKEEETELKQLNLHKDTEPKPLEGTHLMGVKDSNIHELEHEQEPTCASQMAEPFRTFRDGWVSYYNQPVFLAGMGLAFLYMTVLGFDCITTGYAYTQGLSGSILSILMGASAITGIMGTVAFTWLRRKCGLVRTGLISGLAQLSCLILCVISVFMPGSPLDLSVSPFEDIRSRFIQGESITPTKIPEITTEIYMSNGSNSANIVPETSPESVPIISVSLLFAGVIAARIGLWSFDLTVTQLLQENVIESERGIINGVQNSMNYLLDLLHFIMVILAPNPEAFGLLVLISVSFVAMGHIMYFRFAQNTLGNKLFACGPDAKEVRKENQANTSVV
Procedure: Following internalization, the ferroporin protein is degraded.
A retro inverse peptide is a peptide with a reversed sequence in all D amino acids. An example is that Hy-Glu-Thr-His-NH2 becomes Hy-DHis-DThr-DGlu-NH2. The EC50 of these reference compounds for ferroportin internalization/degradation was determined according to the FPN activity assay described above. These peptides served as control standards.

[2] = target: T1, ferroportin; assay: T47D cell-based ferroportin internalization assay in presence of mouse serum albumin (MSA); set-up: a human breast carcinoma adherent cell line which endogenously expresses ferroportin; host or cells: T47D; conditions: Table 6E
Procedure, shortened: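 Peptide potency for inducing ferroportin internalization was measured in T47D cells in the presence of serum albumin. Cells grown in RPMI with fetal bovine serum were seeded in 96-well plates at 80-100 k cells per well in 100 ul and rested overnight. Dilution series of test peptides were preincubated 30 min at room temperature, then added to the cells after the medium was aspirated.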

[3] = T47D internalization assay with MSA
[4] = T47D internalization assay in presence of mouse serum albumin (MSA)

DC50 ([1]; at least 18 hours incubation) [nM]	IC50 [2, 3] [nM]	DC50 ([1]; HEK293 cells) [nM]	IC50 [2, 4] [nM]	Compound
10 to 100	1 to 10	–	–	CCCCCCCCCCCCCCCC(=O)NCC[N+](C)(C)CC(=O)NCCCC[C@@H](C(=O)N[C@H](C(=O)N[C@H](CCCCN)C(N)=O)C(c1ccccc1)c1ccccc1)N(C)C(=O)[C@@H]1CSSC[C@H](NC(=O)[C@@H]2CCCN2C(=O)[C@@H](NC(=O)[C@H](Cc2cnc[nH]2)NC(=O)[C@@H](NC(=O)[C@H](CCC(=O)O)NC(=O)CC(C)C)[C@@H](C)O)C(c2ccccc2)c2ccccc2)C(=O)N1 [compound 194] (Isovaleryl-ETH[Dip]PCC[NMeK](X5)[Dip][dK]-NH2; disulfide 6-7)
1 to 10	1 to 10	–	–	CCCCCCCCCCCCCCCC(=O)NCCCCCC(=O)NCCCC[C@@H](C(=O)N[C@H](C(=O)N[C@H](CCCCN)C(N)=O)C(c1ccccc1)c1ccccc1)N(C)C(=O)[C@@H]1CSSC[C@H](NC(=O)[C@@H]2CCCN2C(=O)[C@@H](NC(=O)[C@H](Cc2cnc[nH]2)NC(=O)[C@@H](NC(=O)[C@H](CCC(=O)O)NC(=O)CC(C)C)[C@@H](C)O)C(c2ccccc2)c2ccccc2)C(=O)N1 [compound 196] (Isovaleryl-ETH[Dip]PCC[NMeK]([Ahx-Palmitoyl])[Dip][dK]-NH2; disulfide 6-7)
10 to 100	10 to 100	–	–	COC(=O)CC[C@H](NC(=O)CC(C)C)C(=O)N[C@H](C(=O)N[C@@H](Cc1c[nH]cn1)C(=O)N[C@H](C(=O)N1CCC[C@H]1C(=O)N[C@H]1CSSC[C@@H](C(=O)N(C)[C@@H](CCCCNC(=O)[C@H](CN)NC(=O)CCCCCCCCCCCCCCCCC(=O)O)C(=O)N[C@H](C(=O)N[C@H](CCCCN)C(N)=O)C(c2ccccc2)c2ccccc2)NC1=O)C(c1ccccc1)c1ccccc1)[C@@H](C)O [compound 206] (Isovaleryl-E(OMe)TH[Dip]PCC[NMeK]([Dap-C18 diacid])[Dip][dK]-NH2; disulfide 6-7)
1 to 10	10 to 100	–	–	COC(=O)CC[C@H](NC(=O)CC(C)C)C(=O)N[C@H](C(=O)N[C@@H](Cc1c[nH]cn1)C(=O)N[C@H](C(=O)N1CCC[C@H]1C(=O)N[C@H]1CSSC[C@@H](C(=O)N(C)[C@@H](CCCCNC(=O)CCCCCNC(=O)[C@H](CN)NC(=O)CCCCCCCCCCCCCCCCC(=O)O)C(=O)N[C@H](C(=O)N[C@H](CCCCN)C(N)=O)C(c2ccccc2)c2ccccc2)NC1=O)C(c1ccccc1)c1ccccc1)[C@@H](C)O [compound 207] (Isovaleryl-E(OMe)TH[Dip]PCC[NMeK]([Ahx-Dap-C18 diacid])[Dip][dK]-NH2; disulfide 6-7)
–	–	10 to 100	10 to 100	COC(=O)CC[C@H](NC(=O)CC(C)C)C(=O)N[C@H](C(=O)N[C@@H](Cc1c[nH]cn1)C(=O)N[C@H](C(=O)N1CCC[C@H]1C(=O)N[C@H]1CSSC[C@@H](C(=O)N(C)[C@@H](CCCCNC(=O)CCCCCNC(=O)C[N+](C)(C)CCNC(=O)CCCCCCCCCCCCCCCCC(=O)O)C(=O)N[C@H](C(=O)N[C@H](CCCCN)C(N)=O)C(c2ccccc2)c2ccccc2)NC1=O)C(c1ccccc1)c1ccccc1)[C@@H](C)O [compound 232] (Isovaleryl-E(OMe)TH[Dip]PCC[NMeK]([Ahx-X1])[Dip][dK]-NH2; disulfide 6-7)
–	–	10 to 100	10 to 100	CC(C)CC(=O)N[C@@H](CCCC(=O)O)C(=O)N[C@H](C(=O)N[C@@H](Cc1cccnc1)C(=O)N[C@H](C(=O)N1CCC[C@H]1C(=O)N[C@H]1CSSC[C@@H](C(=O)N(C)[C@@H](CCCCNC(=O)COCCOCCNC(=O)COCCOCCNC(=O)[C@H](CN)NC(=O)CCCCCCCCCCCCCCCCC(=O)O)C(=O)N[C@H](C(=O)N[C@H](CCCCN)C(N)=O)C(c2ccccc2)c2ccccc2)NC1=O)C(c1ccccc1)c1ccccc1)[C@@H](C)O [compound 242] (Isovaleryl-[Aad]T[3Pal][Dip]PCC[NMeK]([AEEA-AEEA-Dap-C18 diacid])[Dip][dK]-NH2; disulfide 6-7)

More lines, now with the values behind:

Compound	DC50 ([1]; at least 18 hours incubation) [nM]	IC50 [2, 3] [nM]	DC50 ([1]; HEK293 cells) [nM]	IC50 [2, 4] [nM]
CCCCCCCCCCCCCCCC(=O)N[C@@H](CCC(=O)NCCCC[C@@H](C(=O)N[C@H](CC(=O)N[C@H](CCCCNC(=O)CCOCCOCCOCCOCCOCCOCCOCCOCCOCCOCCOCCOC)C(N)=O)Cc1ccccc1)N(C)C(=O)[C@@H]1CSSC[C@H](NC(=O)[C@@H]2CCCN2C(=O)[C@@H](NC(=O)[C@H](Cc2cnc[nH]2)NC(=O)[C@@H](NC(=O)[C@H](CCC(=O)O)NC(=O)CC(C)C)[C@@H](C)O)C(c2ccccc2)c2ccccc2)C(=O)N1)C(=O)O [compound 222] (Isovaleryl-ETH[Dip]PCC[NMeK]([γGlu-Palmitoyl])[β3hF][dK](CH3O(CH2CH2O)11CH2CH2CO)-NH2; disulfide 6-7)	10 to 100	1 to 10	–	–
CC(C)CC(=O)N[C@@H](CCC(=O)O)C(=O)N[C@H](C(=O)N[C@@H](Cc1cnc[nH]1)C(=O)N[C@H](C(=O)N1CCC[C@H]1C(=O)N[C@H]1CSSC[C@@H](C(=O)N(C)[C@@H](CCCCNC(=O)COCCOCCNC(=O)COCCOCCNC(=O)[C@H](CN)NC(=O)CCCCCCCCCCCCCCCCC(=O)O)C(=O)N[C@H](CC(=O)N[C@H](CCCCN)C(=O)N(C)[C@H](CO)C(N)=O)Cc2ccccc2)NC1=O)C(c1ccccc1)c1ccccc1)[C@@H](C)O [compound 247] (Isovaleryl-ETH[Dip]PCC[NMeK]([AEEA-AEEA-Dap-C18 diacid])[β3hF][dK][dNMeS]-NH2; disulfide 6-7)	–	–	10 to 100	1 to 10
CC(C)CC(=O)N[C@@H](CCC(=O)O)C(=O)N[C@H](C(=O)N[C@@H](Cc1c[nH]cn1)C(=O)N[C@H](C(=O)N1CCC[C@H]1C(=O)N[C@H]1CSSC[C@@H](C(=O)N(C)[C@@H](CCCCNC(=O)COCCOCCNC(=O)COCCOCCNC(=O)[C@H](CN)NC(=O)CCCCCCCCCCCCCCCCC(=O)O)C(=O)N[C@H](CC(=O)N[C@H](CCCCN)C(=O)N(C)[C@H](CCC(N)=O)C(N)=O)Cc2ccccc2)NC1=O)C(c1ccccc1)c1ccccc1)[C@@H](C)O [compound 248] (Isovaleryl-ETH[Dip]PCC[NMeK]([AEEA-AEEA-Dap-C18 diacid])[β3hF][dK][dNMeQ]-NH2; disulfide 6-7)	–	–	10 to 100	10 to 100
CC(C)CC(=O)N[C@@H](CCC(=O)O)C(=O)N[C@H](C(=O)N[C@@H](Cc1cnc[nH]1)C(=O)N[C@H](C(=O)N1CCC[C@H]1C(=O)N[C@H]1CSSC[C@@H](C(=O)N(C)[C@@H](CCCCNC(=O)COCCOCCNC(=O)COCCOCCNC(=O)[C@H](CN)NC(=O)CCCCCCCCCCCCCCCCC(=O)O)C(=O)N[C@H](CC(=O)N[C@H](CCCCN)C(=O)N(C)[C@H](CC(C)C)C(N)=O)Cc2ccccc2)NC1=O)C(c1ccccc1)c1ccccc1)[C@@H](C)O [compound 249] (Isovaleryl-ETH[Dip]PCC[NMeK]([AEEA-AEEA-Dap-C18 diacid])[β3hF][dK][dNMeL]-NH2; disulfide 6-7)	–	–	10 to 100	10 to 100
CC(C)CC(=O)N[C@@H](CCC(=O)O)C(=O)N[C@H](C(=O)N[C@@H](Cc1cnc[nH]1)C(=O)N[C@H](C(=O)N1CCC[C@H]1C(=O)N[C@H]1CSSC[C@@H](C(=O)N(C)[C@@H](CCCCNC(=O)COCCOCCNC(=O)COCCOCCNC(=O)[C@H](CN)NC(=O)CCCCCCCCCCCCCCCCC(=O)O)C(=O)N[C@H](CC(=O)N[C@H](CCCCN)C(=O)N(C)[C@H](Cc2ccccc2)C(N)=O)Cc2ccccc2)NC1=O)C(c1ccccc1)c1ccccc1)[C@@H](C)O [compound 250] (Isovaleryl-ETH[Dip]PCC[NMeK]([AEEA-AEEA-Dap-C18 diacid])[β3hF][dK][dNMeF]-NH2; disulfide 6-7)	–	–	10 to 100	1 to 10
